Like-named read-outs stand apart in the source and are kept apart here.
Molecular target: T1, human cytoplasmic dynein 1 (GFP-dynein 1, AA 1320–4646) (Homo sapiens, UniProt Q14204)
T1 construct: (AA 1320–4646 with additional valine [at position 4647], uniprot Q14204); protein A tag (followed by TEV-cleavable linker) (N, cleaved yes); made in house; host or cells: insect cells (baculovirus)
Assay: Microtubule gliding (motility) assay with GFP-dynein 1
Format: biochemical
Excerpt: To examine the inhibition of dynein 1 by dynapyrazole-A in vitro we generated recombinant human protein. We expressed and purified a GFP-tagged human dynein 1 (AA 1320–4646) construct similar to the one we used for GFP-dynein 2. […] GFP-dynein 1 moves microtubules at 508 ± 60 nm/s (n = 5 independent experiments, 191 microtubules analyzed), a velocity expected based on studies of other mammalian dynein 1 homologs ([Yamada et al., 2008]). Under these conditions, ~97% of the filaments analyzed had velocities >50 nm/s (Figure 5—figure supplement 1). […] As has been previously noted for ciliobrevin D, the potency of dynapyrazole-A was sensitive to the protein (e.g. blocking agent, serum) concentration in solution (Figure 5—figure supplement 4), likely due to the hydrophobicity of these compounds (calculated logarithm of octanol:water partition coefficient [ClogP]: ciliobrevin D: 4.5; dynapyrazole-A: 4.2) ([Firestone et al., 2012]).
Reaction setup: A coverslip-based motility assay was adapted from similar assays reported previously ([Firestone et al., 2012]; [Schmidt et al., 2015]). A flow chamber assembled on a pre-cleaned microscope coverslide (3–5 µL chamber volume) was hydrated with buffer A (25 mM PIPES, 30 mM KCl, 5 mM MgCl2, 1 mM EGTA, 0.01% Triton X-100, 1 mM DTT, 20 µM taxol, pH 7.0 with KOH). Anti-GFP antibody (0.4 mg/mL, affinity purified rabbit antibody) was flowed into the chamber and allowed to adhere non-specifically to the glass for 20 s. The surface was blocked using 0.5 mg/mL α-casein in buffer A. Excess protein was then washed away with buffer A. GFP-dynein motor domain was diluted in buffer A supplemented with 1 mM DTT and 0.1 mM ATP (2 mM DTT final; GFP-dynein 2 diluted to: 180 nM; GFP-dynein 1 diluted to: 60 nM), flowed into the chamber and allowed to bind for 20 s. Excess protein was washed away with buffer A. Reaction mix (25 mM PIPES, 90 mM KCl, 6 mM MgCl2, 1 mM EGTA, 0.01% Triton X-100, 3 mM DTT, 20 µM taxol, 1 mM ATP, 1x oxygen scavenging system components [4.5 mg/mL glucose, 35 µg/mL catalase, 200 µg/mL glucose oxidase], 2% final DMSO [v/v] with compounds at appropriate concentrations, 0.05 mg/mL α-casein, microtubules [rhodamine labeled, purified from bovine brain, GMP-CPP and Taxol-stabilized], pH 7.0 with KOH) was flowed into the chamber using ~4 chamber volumes. For experiments shown in Figure 4—figure supplement 1, α-casein concentration in reaction mix was 0.5 mg/mL and all other parameters were held constant.
For reversibility experiments, motility in the presence of 5 µM 8 was observed as above, and upon completion of imaging, the chamber, fresh buffer A supplemented with 1 mM ATP was flowed into the chamber and incubated for 1 min; this wash and incubation cycle was repeated twice. Reaction mix containing DMSO (no compound) was flowed into the chamber using ~4 chamber volumes. The chamber was sealed with valap and returned to the microscope.
Microscopy conditions: Following addition of reaction mix, microtubules were allowed to bind for 5 min before imaging. For reversibility experiments, microtubules were allowed to bind for 10 min before imaging. […] Velocities were measured using the kymograph tool in FIJI ([Schindelin et al., 2012]). […]
Microtubule velocity measurements: the tracks of microtubules were traced and converted to kymographs (x axis-displacement, y axis-time) using the kymograph function of FIJI (RRID: SCR_002285). The angle formed between an edge of a microtubule and the horizontal was measured. […]

[1] = 1 mM MgATP, 0.05 mg/mL casein, 2% DMSO, read-out: IC50, inhibition of GFP-dynein 1-driven motility

T1 sequence (Q14204 with tags, fused parts or gaps): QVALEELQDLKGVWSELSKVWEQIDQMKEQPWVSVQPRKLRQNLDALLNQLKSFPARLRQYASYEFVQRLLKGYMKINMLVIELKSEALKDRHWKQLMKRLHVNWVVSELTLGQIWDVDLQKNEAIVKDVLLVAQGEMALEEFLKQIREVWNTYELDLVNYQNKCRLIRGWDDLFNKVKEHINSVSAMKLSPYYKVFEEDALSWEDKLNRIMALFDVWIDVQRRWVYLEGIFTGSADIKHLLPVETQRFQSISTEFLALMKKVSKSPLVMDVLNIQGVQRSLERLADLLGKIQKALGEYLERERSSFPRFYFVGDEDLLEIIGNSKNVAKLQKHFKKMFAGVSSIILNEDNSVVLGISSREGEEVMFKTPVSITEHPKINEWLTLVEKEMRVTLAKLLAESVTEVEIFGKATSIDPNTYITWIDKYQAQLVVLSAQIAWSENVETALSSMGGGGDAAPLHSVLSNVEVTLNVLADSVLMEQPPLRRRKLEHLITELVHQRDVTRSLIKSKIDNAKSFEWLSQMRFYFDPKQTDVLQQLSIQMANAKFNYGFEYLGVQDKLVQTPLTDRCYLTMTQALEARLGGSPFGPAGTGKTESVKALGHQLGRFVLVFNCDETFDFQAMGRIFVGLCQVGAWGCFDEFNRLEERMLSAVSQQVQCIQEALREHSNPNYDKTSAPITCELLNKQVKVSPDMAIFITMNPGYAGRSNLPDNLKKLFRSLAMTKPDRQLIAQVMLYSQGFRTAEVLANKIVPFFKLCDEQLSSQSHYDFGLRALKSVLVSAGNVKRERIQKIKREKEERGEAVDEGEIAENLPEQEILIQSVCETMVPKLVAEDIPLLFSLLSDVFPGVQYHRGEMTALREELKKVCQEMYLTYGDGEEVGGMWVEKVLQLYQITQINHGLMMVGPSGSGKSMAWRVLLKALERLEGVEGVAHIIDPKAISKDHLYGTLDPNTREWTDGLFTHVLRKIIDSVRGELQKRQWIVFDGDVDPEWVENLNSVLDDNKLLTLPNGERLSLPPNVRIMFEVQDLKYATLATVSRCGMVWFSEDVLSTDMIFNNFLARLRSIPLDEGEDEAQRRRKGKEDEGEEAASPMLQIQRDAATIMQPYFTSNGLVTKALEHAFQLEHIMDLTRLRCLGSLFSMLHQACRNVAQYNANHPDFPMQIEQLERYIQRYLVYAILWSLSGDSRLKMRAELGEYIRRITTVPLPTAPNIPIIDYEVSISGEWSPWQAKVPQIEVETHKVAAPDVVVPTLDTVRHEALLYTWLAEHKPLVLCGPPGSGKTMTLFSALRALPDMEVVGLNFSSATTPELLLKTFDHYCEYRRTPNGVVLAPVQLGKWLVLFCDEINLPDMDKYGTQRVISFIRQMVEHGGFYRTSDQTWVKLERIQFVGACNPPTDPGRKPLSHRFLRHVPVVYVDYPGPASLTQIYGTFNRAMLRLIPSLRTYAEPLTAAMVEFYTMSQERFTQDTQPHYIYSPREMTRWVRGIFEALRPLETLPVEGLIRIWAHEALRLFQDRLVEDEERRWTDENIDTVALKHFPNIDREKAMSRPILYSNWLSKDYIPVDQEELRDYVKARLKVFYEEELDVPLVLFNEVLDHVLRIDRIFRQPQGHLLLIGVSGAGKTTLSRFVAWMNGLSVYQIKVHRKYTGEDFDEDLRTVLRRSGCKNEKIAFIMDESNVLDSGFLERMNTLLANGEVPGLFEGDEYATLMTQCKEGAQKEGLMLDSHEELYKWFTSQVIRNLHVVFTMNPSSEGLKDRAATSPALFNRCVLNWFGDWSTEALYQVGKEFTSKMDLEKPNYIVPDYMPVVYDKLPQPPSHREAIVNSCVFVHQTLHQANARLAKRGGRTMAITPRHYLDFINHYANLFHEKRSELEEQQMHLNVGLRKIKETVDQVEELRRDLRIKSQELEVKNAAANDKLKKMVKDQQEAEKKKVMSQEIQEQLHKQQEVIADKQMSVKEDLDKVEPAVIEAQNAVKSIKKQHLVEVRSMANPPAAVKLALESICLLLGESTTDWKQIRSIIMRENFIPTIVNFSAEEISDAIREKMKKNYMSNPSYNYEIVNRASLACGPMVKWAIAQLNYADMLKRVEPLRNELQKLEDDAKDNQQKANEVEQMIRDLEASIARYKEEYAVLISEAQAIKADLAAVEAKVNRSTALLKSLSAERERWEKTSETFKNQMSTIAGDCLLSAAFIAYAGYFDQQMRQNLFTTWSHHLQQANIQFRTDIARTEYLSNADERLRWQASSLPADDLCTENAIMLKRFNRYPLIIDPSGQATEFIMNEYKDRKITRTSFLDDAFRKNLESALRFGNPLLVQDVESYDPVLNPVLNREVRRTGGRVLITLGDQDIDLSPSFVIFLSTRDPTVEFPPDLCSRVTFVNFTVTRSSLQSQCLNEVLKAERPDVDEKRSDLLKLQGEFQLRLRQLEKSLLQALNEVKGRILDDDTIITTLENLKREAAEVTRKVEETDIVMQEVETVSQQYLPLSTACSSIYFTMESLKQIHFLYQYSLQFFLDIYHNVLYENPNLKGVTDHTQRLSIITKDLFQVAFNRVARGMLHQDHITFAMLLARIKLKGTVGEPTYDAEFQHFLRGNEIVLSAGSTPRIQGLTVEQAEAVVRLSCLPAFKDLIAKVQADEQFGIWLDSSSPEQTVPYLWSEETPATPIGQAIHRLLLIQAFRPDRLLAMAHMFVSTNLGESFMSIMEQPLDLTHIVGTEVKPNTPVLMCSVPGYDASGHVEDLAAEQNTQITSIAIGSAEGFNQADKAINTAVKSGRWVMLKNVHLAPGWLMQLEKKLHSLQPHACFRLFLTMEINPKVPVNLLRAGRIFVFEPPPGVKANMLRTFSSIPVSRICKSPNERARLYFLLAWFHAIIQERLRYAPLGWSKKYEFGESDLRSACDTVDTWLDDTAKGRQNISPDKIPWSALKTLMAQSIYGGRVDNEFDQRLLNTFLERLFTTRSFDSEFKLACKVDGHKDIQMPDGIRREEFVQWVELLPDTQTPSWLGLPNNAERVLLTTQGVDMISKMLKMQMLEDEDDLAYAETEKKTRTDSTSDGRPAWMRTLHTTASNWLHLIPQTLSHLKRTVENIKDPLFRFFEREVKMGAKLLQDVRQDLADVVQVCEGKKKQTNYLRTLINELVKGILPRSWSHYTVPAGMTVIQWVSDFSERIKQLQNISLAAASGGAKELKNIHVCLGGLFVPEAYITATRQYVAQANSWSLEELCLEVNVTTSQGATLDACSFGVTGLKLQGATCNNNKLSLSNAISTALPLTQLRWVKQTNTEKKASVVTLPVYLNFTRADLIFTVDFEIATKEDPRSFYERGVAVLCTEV

SMILES	Reversibility of inhibition of dynein-1-dependent microtubule gliding after washout (5 µM 8, then washout, 1 mM ATP, 0.05 mg/mL casein)	IC50 (1 mM ATP, 0.5 mg/mL casein, read-out: IC50, inhibition of GFP-dynein 1-driven motility in the presence of 0.5 mg/ml casein) [µM]	IC50 [1] [µM]	Potency relative to ciliobrevin D, GFP-dynein-1-driven motility (more potent than ciliobrevin D)
N#Cc1c(C2(c3ccc(Cl)cc3)CC2)nn2c1[nH]c(=O)c1cc(I)ccc12 [Compound 8, 2-[1-(4-chlorophenyl)cyclopropyl]-7-iodo-5-oxo-4H-pyrazolo[1,5-a]quinazoline-3-carbonitrile]	reversed following washout	10.5 ± 4.6	2.3 ± 1.4	~ 6 fold
N#C/C(C(=O)c1ccc(Cl)cc1Cl)=C1\NC(=O)c2ccc(Cl)cc2N1 [ciliobrevin D, reference compound]	–	–	15 ± 2.9	–

— article PMC5478271, “Chemical structure-guided design of dynapyrazoles, cell-permeable dynein inhibitors with a unique mode of action” (eLife, 2017)
